# Patent publication US12016876B2, “Micro-RNAs and compositions comprising same for the treatment and diagnosis of serotonin-, adrenalin-, noradrenalin-, glutamate-, and corticotropin-releasing hormone- associated medical conditions” (Yeda Research and Development Co. Ltd., priority 2011, dated 2024)
# B1: miR-335: microRNA over-expressed from a vector (nucleic acid, listed as Homo sapiens)
# chain 1: UGUUUUGAGCGGGGGUCAAGAGCAAUAACGAAAAAUGUUUGUCAUAAACCGUUUUUCAUUAUUGCUCCUGACCUCCUCUCAUUUGCUAUAUUCA
# chain 2: UCAAGAGCAAUAACGAAAAAUGU
# B2: miR-182: pre-mmu-miR-182 over-expression in pEGFP plasmid or lentiviruses (nucleic acid, listed as Homo sapiens)
# chain 1: GAGCUGCUUGCCUCCCCCCGUUUUUGGCAAUGGUAGAACUCACACUGGUGAGGUAACAGGAUCCGGUGGUUCUAGACUUGCCAACUAUGGGGCGAGGACUCAGCCGGCAC
# chain 2: UUUGGCAAUGGUAGAACUCACACCG
# Legend:
# mice [1] = test: Forced swim test; type: in vivo
# Description: The […] was performed as previously described [Krishnan V and Nestler E J, Nature (2008) 455: 894-902]. In short, the apparatus used was a plastic bucket, 18 cm of diameter, filled with 25° C. water to a depth of 15 cm. Each mouse was placed in the center of the bucket to initiate a 6 minutes video recorded test session. The duration of time spent immobile during the 2-6 minute of testing was automatically scored using Eto Vision XT (Noldus, Wageningen, Netherlands).
# mice [2] = test: Tail suspension test; type: in vivo
# Description: The tail suspension test was performed in the TSE Tail Suspension Monitor (TSE Systems, Bad Homburg, Germany). Each mouse was taped by the tip of its tail, and suspended from the force sensor for 10 minutes. Time spent immobile and time spent struggling were calculated and recorded by the software based on pre-set thresholds.
# miR-135a = miR-135a levels after antidepressant treatment, real time PCR; conditions: for miR-135a levels in the RN: acute or chronic administration, 20 mg/kg i.p.
# miR-135b [3] = test: miR-135b levels after antidepressant treatment, real time PCR; conditions: for miR-135b levels in the RN: acute or chronic administration, 20 mg/kg i.p.
# miR-19b = miR-19b levels in PFC after Reboxetine; type: in vivo, mice
# Description: (§1) Mice received i.p. injection of tricyclic-Imipramine, or SSRI-Fluoxetine, or NRI-Reboxetine (20 mg/kg in saline) or saline.
# (§2) These animals will be also tested for anxiety like behavior, locomotor activity and memory performance. Furthermore, the levels of expression of miR-19a and miR-19b are examined in different regions of interest (E.G the hippocampus, amygdala and forebrain) following an acute and chronic systemic treatment with the Noradrenaline reuptake inhibitor Reboxetine in WT mice.
# miR-19a = miR-19a levels in PFC after Reboxetine; type: in vivo, mice
# Description: as §1, §2
# Htr1a 3′UTR = test: Luciferase reporter assay, Htr1a 3′UTR, HEK293T cells; type: cell-based, mouse; conditions: for seed matches through which Htr1a 3′UTR is repressed: Htr1a miR-135 seed matches mutated individually or both; for repression of Htr1a 3′UTR luciferase reporter: miR over-expressing vector vs empty vector, HEK293T
# From the text: (§3) 3′UTR sequences of Slc6a4, Htr1a, MaoA and Tph2 were PCR amplified from mouse genomic DNA, or total brain cDNA. 3′UTR PCR fragments were ligated into pGEM-T easy vector (Promega) according to the manufacturer's guidelines, and further subcloned into a single NotI site at the 3′ end of luciferase in the Psicheck2 reporter plasmid (Promega). Mutated 3′ UTR sequences, lacking miR-135 seed sequences, were synthesized with primers overhangs across the seed match sequence. Cloning orientation was verified by diagnostic cuts and by sequencing.
# (§4) HEK293T cells were grown on poly-L-lysine in 48-well format to a 70-85% confluence and transfected using Polyethyleneimine with the following plasmids: 5 ng of Psicheck2-3′UTR plasmid and 215 ng of over-expressing vector for a specific miRNA, or empty-miR-vec over-expression plasmids. 24 hours following transfection cells were lysed and luciferase reporters activity were assayed as previously described [Chen A. et al. Mol Endocrinol (2005) 19: 441-58]. Renilla luciferase values were normalized to control firefly luciferase levels (transcribed from the same vector but not affected by 3′UTR tested) and averaged across six well repetitions per condition.
# 3′UTR sequence of Htr1a was PCR amplified from mouse genomic DNA. 3′UTR PCR fragments were ligated into pGEM-T easy vector (Promega) according to the manufacturer's guidelines, and further subcloned into a single NotI site at the 3′ end of luciferase in the Psicheck2 reporter plasmid (Promega). Cloning orientation was verified by diagnostic cuts and by sequencing.
# as §4, with “plasmids:” for “plasmids: 5 ng of”, “Psicheck2-3′UTR plasmid, pre-mmu-miR-182 over-expression in pEGFP” for “Psicheck2-3′UTR”, “plasmid” for “plasmid and 215 ng of over-expressing vector for a specific miRNA,”, “pEGFP plasmid alone (clontech).” for “empty-miR-vec over-expression plasmids.”
# Slc6a4 3′UTR = test: Luciferase reporter assay, Slc6a4 3′UTR, HEK293T cells; type: cell-based, mouse; conditions: for repression of Slc6a4 3′UTR luciferase reporter: miR over-expressing vector vs empty vector, HEK293T; for repression with Slc6a4 3′UTR mutated in miR-135 seed match: mutated 3′UTR lacking miR-135 seed match
# From the text: as §3, §4
# miR-135b [4] = test: Lentiviral over-expression of miR-135b in RN, real time PCR; conditions: lentiviruses over-expressing miR-135b injected into RN, vs control lentiviruses
# mice [5] = test: Home cage locomotor activity; type: in vivo; conditions: lentiviral miR-135b over-expression in RN
# Description: To control for the possibility of behavioral effects originating from differences in ambulatory movement, locomotor activity of mice was examined over a 48 hours period, which proceeded a few days of habituation. Mice were single housed in specialized home cages and locomotion was measured using the InfraMot system (TSE Systems, Bad Hamburg, Germany).
# Tsnax 3′UTR = test: Luciferase assay, Tsnax 3′UTR, N2a cells; type: cell-based
# Description: (§5) Using a luciferase assay, eleven predicted target genes of miR182, chosen after extensive bioinformatics, were examined (FIG. 27A).
# (§6) Similar verification for Dscam and Htr1a with mutated 3′UTR are performed.
# L1cam 3′UTR = test: Luciferase assay, L1cam 3′UTR, N2a cells; type: cell-based
# Description: as §5, §6
# miR-182 = miR-182 over-expression lentiviruses in N2a cell line, real time PCR; conditions: N2a cells infected with over-expression lentiviruses vs control
# Dscam 3′UTR = test: Luciferase assay, Dscam 3′UTR, N2a cells; type: cell-based
# From the text: as §5
# [6] = acute and chronic administration
# [7] = chronic administration (18 days)
molecule,measurement,setting,value
CNCCC(Oc1ccc(C(F)(F)F)cc1)c1ccccc1 (stereo not drawn) [Fluoxetine],"immobility time, forced swim test","mice [1]; SSRI treatment, miR135KD and control KD mice",reduced
same,"immobility time, tail suspension test","mice [2]; SSRI treatment vs basal, miR135KD and control KD mice",decrease in immobility time
same,miR135a levels in the AMY,miR-135a; acute administration,upregulated
same,miR135a levels in the PFC,miR-135a; acute administration,not significantly altered
same,circulating miR-135a levels in plasma,miR-135a; [6],robust decrease
same,miR-135a levels in the RN,miR-135a,robust increase
same,miR135a levels in the AMY,miR-135a; chronic administration,not by chronic administration
same,miR135a levels in the PFC,miR-135a; chronic administration,decreased
same,miR135b levels in the AMY,miR-135b [3]; acute administration,upregulated
same,miR135b levels in the PFC,miR-135b [3]; acute administration,upregulated
same,circulating miR-135b levels in plasma,miR-135b [3]; [6],no effect
same,miR-135b levels in the RN,miR-135b [3],unaltered
same,miR135b levels in the AMY,miR-135b [3]; chronic administration,not by chronic administration
same,miR135b levels in the PFC,miR-135b [3]; chronic administration,decreased
CN(C)CCCN1c2ccccc2CCc2ccccc21 [Imipramine],miR-135a levels in the RN,miR-135a,increased
same,miR-135b levels in the RN,miR-135b [3],increased
CCOc1ccccc1OC(c1ccccc1)C1CNCCO1 (stereo not drawn) [Reboxetine],miR135a levels in the AMY,miR-135a; acute administration,upregulated
same,miR135a levels in the PFC,miR-135a; acute administration,not significantly altered
same,miR-135a levels in the RN,miR-135a,not
same,miR135a levels in the AMY,miR-135a; chronic administration,not by chronic administration
same,miR-19b levels in the PFC,miR-19b; acute administration (once),down regulated
same,miR-19b levels in the PFC,miR-19b; [7],upregulated
same,miR135b levels in the AMY,miR-135b [3]; acute administration,upregulated
same,miR135b levels in the PFC,miR-135b [3]; acute administration,upregulated
same,miR-135b levels in the RN,miR-135b [3],unaltered
same,miR135b levels in the AMY,miR-135b [3]; chronic administration,not by chronic administration
same,miR-19a levels in the PFC,miR-19a; acute administration (once),down regulated
same,miR-19a levels in the PFC,miR-19a; [7],upregulated
miR-135a: microRNA over-expressed from a vector; SEQ ID NO: 24 (AGUGUAUCCUUAUUUUUCGGUAU; listed as Mus musculus),seed matches through which Htr1a 3′UTR is repressed,Htr1a 3′UTR,via the distal and not the proximal seed match
same,repression of Htr1a 3′UTR luciferase reporter,Htr1a 3′UTR,approximately 30%
same,repression of Slc6a4 3′UTR luciferase reporter,Slc6a4 3′UTR,approximately 30%
same,repression with Slc6a4 3′UTR mutated in miR-135 seed match,Slc6a4 3′UTR,fully blocked
miR-135b: microRNA over-expressed from plasmid or neuron-specific lentivirus (pre-miR-135b); SEQ ID NO: 26 (AGUGUAUCCUUACUUUUCGGUAU; listed as Mus musculus),"immobility time, forced swim test","mice [1]; lentiviral miR-135b over-expression in RN, after chronic social defeat",reduced immobility time
same,induction of miR-135b levels in RN,miR-135b [4],10 fold
same,"immobility time, tail suspension test","mice [2]; lentiviral miR-135b over-expression in RN, after chronic social defeat, last 5 min",reduced immobility time
same,seed matches through which Htr1a 3′UTR is repressed,Htr1a 3′UTR,via both predicted sites
same,repression of Htr1a 3′UTR luciferase reporter,Htr1a 3′UTR,approximately 50%
same,repression of Slc6a4 3′UTR luciferase reporter,Slc6a4 3′UTR,approximately 50%
same,repression with Slc6a4 3′UTR mutated in miR-135 seed match,Slc6a4 3′UTR,fully blocked
same,home cage locomotion,mice [5],without any observed change
B1,repression of Htr1a 3′UTR luciferase reporter,Htr1a 3′UTR,significant repression
B2,effect on Tsnax 3′UTR luciferase,Tsnax 3′UTR; N2a cells,represoric effect
same,effect on Tsnax 3′UTR with mutated seed match,Tsnax 3′UTR; mutated 3′UTR,abolished
same,effect on L1cam 3′UTR luciferase,L1cam 3′UTR; N2a cells,represoric effect
same,effect on L1cam 3′UTR with mutated seed match,L1cam 3′UTR; mutated 3′UTR,abolished
same,repression of Htr1a 3′UTR luciferase reporter,Htr1a 3′UTR,strong repression
same,miR-182 levels in infected cells,miR-182,increased miR-182 levels
same,effect on Dscam 3′UTR luciferase,Dscam 3′UTR,represoric effect
